Test system: Plasmodium berghei
Experiment: Luciferase/luciferin-expressing antifolate-resistant parasites were used to infect a culture of HepG2 cells that were pre-incubated with compounds. Infected hepatocytes emit light due to the luciferase reaction. Assay results are presented as the percent inhibition of light emission compared to control. […]
Type: functional
Settings: sporozoite; for IC90: read-out: LUCIFERASE INFECTION ASSAY - IC90
[1] = read-out: LUCIFERASE INFECTION ASSAY - IC50

SMILES	IC90 [µM]	IC50 [1] [µM]	other results
NC1=Nc2cccc3cccc(c23)N1	12.9	–	IC50 (FFLUC_HILL_SLOPE 1.44, FFLUC_R_SQUARED 0.698, HEPG2TOX_HILL_SLOPE 2.55, HEPG2TOX_R_SQUARED 0.966, PBLUC_HILL_SLOPE 3.15, PBLUC_R_SQUARED 0.786, read-out: LUCIFERASE INFECTION ASSAY - IC50): 6.42 µM
CN(C)c1ccc(/C=N/NC(=O)c2ccccc2N)c(Cl)c1	> 10.4	> 10.4	–
CCOC(=O)c1c[nH]c2c(C)cc(Cl)cc2c1=O	> 12.4	–	IC50 (PBLUC_HILL_SLOPE 15.3, PBLUC_R_SQUARED 0.364, read-out: LUCIFERASE INFECTION ASSAY - IC50): 11.2 µM
CCn1c2ccccc2c2cc(NC(=O)C(C)OC(=O)c3ccc([N+](=O)[O-])o3)ccc21 (centres undefined)	> 10	> 10	–
CC(C)(C)C1=CSC(=C2Sc3ccccc3C2=O)N1	> 11.4	–	IC50 (FFLUC_HILL_SLOPE 1.22, FFLUC_R_SQUARED 0.112, read-out: LUCIFERASE INFECTION ASSAY - IC50): > 11.4 µM
Fc1ccc(-c2csc3ncnc(Sc4nnc(NC5CC5)s4)c23)cc1	> 10	> 10	–
CC(C)c1ccc(/C=C/C2=NNC(=O)CC2)cc1	> 13.6	–	IC50 (HEPG2TOX_HILL_SLOPE 0.687, HEPG2TOX_R_SQUARED 0.88, PBLUC_HILL_SLOPE 0.307, PBLUC_R_SQUARED 0.14, read-out: LUCIFERASE INFECTION ASSAY - IC50): > 13.6 µM
CC(C)(C)C(=O)/C=c1\[nH]c(=O)/c(=C\c2ccc(Oc3ccc(F)cc3)c([N+](=O)[O-])c2)s1	> 10	> 10	–
CCN(CC)CCN1COc2c(cc(Cl)c3cccnc23)C1	4.94	–	IC50 (HEPG2TOX_HILL_SLOPE 1.86, HEPG2TOX_R_SQUARED 0.951, PBLUC_HILL_SLOPE 8.52, PBLUC_R_SQUARED 0.457, read-out: LUCIFERASE INFECTION ASSAY - IC50): 3.81 µM
Cc1cc(CNC(C)c2cc(F)c(Cl)cc2Cl)cc(C)c1O (centres undefined)	> 10	> 10	–
O=C(Nc1ccc(C(=O)N(CCO)Cc2cccc(OCc3ccccc3Cl)c2)cc1)C1CC1	> 10	–	IC50 (PBLUC_HILL_SLOPE 3.35, PBLUC_R_SQUARED 0.615, read-out: LUCIFERASE INFECTION ASSAY - IC50): 6.85 µM
CC(=O)c1cccc(-c2cnc3ccc(-c4ccc5c(c4)OCO5)nn23)c1	7.88	–	IC50 (HEPG2TOX_HILL_SLOPE 1.55, HEPG2TOX_R_SQUARED 0.983, PBLUC_HILL_SLOPE 1.3, PBLUC_R_SQUARED 0.851, read-out: LUCIFERASE INFECTION ASSAY - IC50): 1.46 µM
CCc1ccc(-c2nc(C(=O)Nn3cn[nH]c3=S)cs2)cc1	> 10	–	IC50 (PBLUC_HILL_SLOPE 3.31, PBLUC_R_SQUARED 0.251, read-out: LUCIFERASE INFECTION ASSAY - IC50): 5.44 µM
COc1cccc(NCC2(c3ccnc(-c4ccccc4Cl)c3)CC2)c1	> 10	> 10	–
CCCCn1c(=O)[nH]c(=O)c2c1nc(-c1ccc(C)c([N+](=O)[O-])c1)n2CC	3.73	–	IC50 (PBLUC_HILL_SLOPE 20.6, PBLUC_R_SQUARED 0.559, read-out: LUCIFERASE INFECTION ASSAY - IC50): 3.35 µM
CCOC(=O)NC1=C/C(=N\S(=O)(=O)c2ccc(C)cc2)c2ccccc2C1=O	> 10	–	IC50 (HEPG2TOX_HILL_SLOPE 8.17, HEPG2TOX_R_SQUARED 0.938, PBLUC_HILL_SLOPE 4.13, PBLUC_R_SQUARED 0.0669, read-out: LUCIFERASE INFECTION ASSAY - IC50): > 10 µM
O=C(Nc1ccccc1)c1nnsc1S(=O)(=O)c1ccc(Cl)cc1	> 8.69	> 8.69	–
O=C(CC1(O)C(=O)Nc2ccc(Br)cc21)c1ccc2c(c1)OCO2 (centres undefined)	> 8.46	> 8.46	–
COc1ccc(CNC(=O)/C=C/c2csc(N(C(C)=O)c3cccc(C(F)(F)F)c3)n2)cc1	> 10	> 10	–
Nc1nc2c(C(=O)c3cccs3)nnn2c2ccc(Cl)cc12	0.489	–	IC50 (FFLUC_HILL_SLOPE 1.53, FFLUC_R_SQUARED 0.767, PBLUC_HILL_SLOPE 0.914, PBLUC_R_SQUARED 0.801, read-out: LUCIFERASE INFECTION ASSAY - IC50): 0.0442 µM
CCOc1ccc(OCC)c(S(=O)(=O)Oc2cccc3ccc(C)nc23)c1	> 8.52	–	IC50 (HEPG2TOX_HILL_SLOPE 2.15, HEPG2TOX_R_SQUARED 0.762, PBLUC_HILL_SLOPE 2.2, PBLUC_R_SQUARED 0.11, read-out: LUCIFERASE INFECTION ASSAY - IC50): 7.25 µM

SMILES	IC90 [µM]	IC50 [1] [µM]	other results
Cc1c(OCC(=O)NCc2ccccn2)ccc2c1oc(=O)c1ccccc12	> 8.81	–	IC50 (FFLUC_HILL_SLOPE 12.1, FFLUC_R_SQUARED 0.777, PBLUC_HILL_SLOPE 13, PBLUC_R_SQUARED 0.252, read-out: LUCIFERASE INFECTION ASSAY - IC50): 8.19 µM
O=C(Nc1ccc(-n2ccc(C(F)(F)F)n2)cc1)c1cccs1	3.61	–	IC50 (PBLUC_HILL_SLOPE 1.9, PBLUC_R_SQUARED 0.777, read-out: LUCIFERASE INFECTION ASSAY - IC50): 1.14 µM
Cc1cc(=O)nc(N(C(=O)Nc2ccccc2)c2cccc(C(F)(F)F)c2)n1C(=O)Nc1ccccc1	> 10	–	IC50 (PBLUC_HILL_SLOPE 12.5, PBLUC_R_SQUARED 0.105, read-out: LUCIFERASE INFECTION ASSAY - IC50): 9.27 µM
O=C(NNC(=O)c1csc(COc2ccccc2Cl)n1)c1ccc(Cl)cc1	7.14	–	IC50 (FFLUC_HILL_SLOPE 94.2, FFLUC_R_SQUARED 0.775, HEPG2TOX_HILL_SLOPE 11.4, HEPG2TOX_R_SQUARED 0.575, PBLUC_HILL_SLOPE 4.49, PBLUC_R_SQUARED 0.337, read-out: LUCIFERASE INFECTION ASSAY - IC50): 4.37 µM
Clc1ccc(OCc2cccnc2)c(CN2CCN(c3ncccn3)CC2)c1	> 10	> 10	–
Cc1c(C(=O)N2CCN(c3cc(C#N)ccn3)CC2)[nH]c2c1C(=O)CCC2	> 10	–	IC50 (HEPG2TOX_HILL_SLOPE 7.54, HEPG2TOX_R_SQUARED 0.56, read-out: LUCIFERASE INFECTION ASSAY - IC50): > 10 µM
CC/N=c1\scc(-c2cc(C)c(C)cc2C)n1/N=C/c1c[nH]c2ccccc12	6.13	–	IC50 (PBLUC_HILL_SLOPE 4.53, PBLUC_R_SQUARED 0.847, read-out: LUCIFERASE INFECTION ASSAY - IC50): 3.77 µM
CS(=O)(=O)c1ccc(CN2CCN3C(C(=O)Nc4ccc(F)c(Cl)c4)=COC3=NC2=O)cc1	> 10	–	IC50 (HEPG2TOX_HILL_SLOPE 2.2, HEPG2TOX_R_SQUARED 0.936, PBLUC_HILL_SLOPE 1.17, PBLUC_R_SQUARED 0.243, read-out: LUCIFERASE INFECTION ASSAY - IC50): > 10 µM
O=C(NCc1ccco1)/C(=C/c1cccc(C(F)(F)F)c1)c1nc2ccccc2[nH]1	7.5	–	IC50 (FFLUC_HILL_SLOPE 10.6, FFLUC_R_SQUARED 0.24, HEPG2TOX_HILL_SLOPE 4.32, HEPG2TOX_R_SQUARED 0.946, PBLUC_HILL_SLOPE 6.31, PBLUC_R_SQUARED 0.466, read-out: LUCIFERASE INFECTION ASSAY - IC50): 5.3 µM
Cc1c(C)n(CCCO)c2ncn3nc(-c4ccc(N(C)C)cc4)nc3c12	3.79	–	IC50 (FFLUC_HILL_SLOPE 0.464, FFLUC_R_SQUARED 0.882, PBLUC_HILL_SLOPE 0.457, PBLUC_R_SQUARED 0.781, read-out: LUCIFERASE INFECTION ASSAY - IC50): 0.0311 µM
CCOC(=O)N/N=C(\CC)c1ccc(-c2ccccc2F)cc1	> 10.5	–	IC50 (HEPG2TOX_HILL_SLOPE 16.9, HEPG2TOX_R_SQUARED 0.877, PBLUC_HILL_SLOPE 3.23, PBLUC_R_SQUARED 0.461, read-out: LUCIFERASE INFECTION ASSAY - IC50): 6.06 µM
Cc1nnc(Sc2ncc([N+](=O)[O-])s2)n1-c1ccc(OCc2ccccc2)cc1	> 7.76	> 7.76	–
CC(C)(C)C(=O)/C=c1\[nH]c(=O)/c(=C/c2cc(F)cc3c2OCOC3)s1	> 10	–	IC50 (PBLUC_HILL_SLOPE 2.84, PBLUC_R_SQUARED 0.665, read-out: LUCIFERASE INFECTION ASSAY - IC50): 6.37 µM
Cc1ccc(F)cc1NS(=O)(=O)c1ccc(-n2ncc(Cl)c(Cl)c2=O)cc1	6.47	–	IC50 (HEPG2TOX_HILL_SLOPE 2.56, 7.18, HEPG2TOX_R_SQUARED 0.970, 0.512, PBLUC_HILL_SLOPE 2.23, 0.224, PBLUC_R_SQUARED 0.767, 0.129, read-out: LUCIFERASE INFECTION ASSAY - IC50): 2.08 µM
CCc1c(C)sc2nc(SCC3COc4ccccc4O3)n(-c3ccc(C)c(C)c3)c(=O)c12 (centres undefined)	> 10	> 10	–
CC(C)(C)c1ccc(C(=O)N/N=C/c2cc(Cl)cc(Cl)c2O)cc1	> 9.03	> 9.03	–
CN(C)S(=O)(=O)c1ccc(SCC(=O)c2ccc(C(C)(C)C)cc2)nc1	5.05	–	IC50 (PBLUC_HILL_SLOPE 8.24, PBLUC_R_SQUARED 0.558, read-out: LUCIFERASE INFECTION ASSAY - IC50): 3.87 µM
COC(=O)c1cc([N+](=O)[O-])ccc1N1CCN(c2cc(C)nc(C(C)C)n2)CC1	> 10	> 10	–
O=C1COc2ccc(-c3cs/c(=N\CCc4ccccc4)n3/N=C/c3ccc4ncccc4c3)cc2N1	> 10	–	IC50 (FFLUC_HILL_SLOPE 3.55, FFLUC_R_SQUARED 0.719, HEPG2TOX_HILL_SLOPE 3.57, HEPG2TOX_R_SQUARED 0.945, read-out: LUCIFERASE INFECTION ASSAY - IC50): > 10 µM
C=S(=O)(NC(=O)c1ccc(-c2cc(C(F)(F)F)nn2C)s1)c1ccc(C)cc1 (centres undefined)	> 7.72	> 7.72	–
CC(Nc1ncnc2sccc12)c1ccc(F)cc1 (centres undefined)	8.6	–	IC50 (HEPG2TOX_HILL_SLOPE 0.743, HEPG2TOX_R_SQUARED 0.939, PBLUC_HILL_SLOPE 0.968, PBLUC_R_SQUARED 0.762, read-out: LUCIFERASE INFECTION ASSAY - IC50): 0.889 µM
